According to patent publication US20220306623A1, “PYRIDYL OR PYRIMIDYL MTOR KINASE INHIBITORS” (GLAXOSMITHKLINE INTELLECTUAL PROPERTY DEVELOPMENT LIMITED, priority 2019, published 2022):

Assays:
[1] = target: T1, mTOR (Homo sapiens, UniProt P42345); assay: mTOR kinobeads competition-binding assay; settings: HuT-78 cell lysate, bead-immobilized capturing ligand, 2 h at 4° C., mean of multiple experiments; read-out: mean pIC50, mTOR kinobeads assay (converted)
T1 construct: capturing of endogenously expressed target proteins from cell extracts by a bead-immobilized capturing ligand; endogenous in cells; host or cells: HuT-78 cells (ECACC 88041901), cell lysate
Experimental: The affinity of test compounds for mTOR was determined in the mTOR kinobeads assay. This is a competition-binding assay based on the capturing of endogenously expressed target proteins from cell extracts by a bead-immobilized capturing ligand in the presence of the test compound.
HuT-78 cells (European Collection of Authenticated Cell Cultures, 88041901) were cultured according to vendor's instructions. Frozen cell pellets were homogenized in 3× pellet volumes lysis buffer (50 mM Tris-HCl, 0.4% (v/v) Igepal-CA630, 5% glycerol, 150 mM NaCl, 1.5 mM MgCl2, 25 mM NaF, 1 mM sodium vanadate, 1 mM DTT, pH 7.5, supplemented with EDTA-free protease inhibitor tablet (Roche)). The sample was dispersed using a Dounce homogenizer, kept rotating for 30 min at 4° C., and centrifuged for 10 min at 20000 gat 4° C. The supernatant was centrifuged again for 1 h at 145 000 g. The protein concentration was determined by Bradford assay (BioRad), aliquots were snap frozen in liquid nitrogen and stored at −80° C.
The capturing matrices were generated by derivatizing N-hydroxysuccinimide (NHS) activated Sepharose 4 beads (GE Healthcare) with the functionalized ligands Compound A and Compound C at a ligand density of 5 mM. Remaining NHS-groups were blocked with ethanolamine.
For the mTOR kinobeads assay the matrices were combined in a 1:1 ratio and equilibrated in DP buffer (50 mM Tris-HCl (pH 7.5), 0.4% (v/v) Igepal-CA630, 5% (v/v) glycerol, 150 mM NaCl, 1.5 mM MgCl2, 25 mM NaF, 1 mM Na3VO4, 1 mM dithiothreitol). All steps of the mTOR kinobeads assay were performed at 4° C. or on ice. The cell lysate was diluted with DP buffer to a final concentration of 5 mg/ml and a final detergent concentration of 0.4% (v/v) Igepal-CA630. For the assay 250 μg cell lysate and 2.5 μl capturing matrix per well (final assay volume: 75 μl) were incubated in the presence of test compounds in a 384-well filter plate (MultiScreenHTS HV Filter Plate, 0.45 μm, MZHVNOW50, Merck Millipore). Each plate contained 16 positive (100 μM Compound B) and 16 negative (2% v/v DMSO) control wells. Compounds were tested in a concentration-response applying 1:3 or 1:4 dilution steps for in total 11 data points. DMSO concentration was 2% (v/v). After 2 h incubation on an overhead shaker (Roto-Shake Genie, Scientific Industries Inc.) at 4° C. the non-bound fraction was removed by washing the beads with DP buffer. Proteins retained on the beads were eluted in SDS sample buffer (200 mM Tris (pH 7.4), 250 mM Trizma Base, 4% (w/v) SDS, 20% (v/v) glycerol, 0.01% (w/v) bromophenol blue, 50 mM dithiothreitol) into a collection plate (384 well polypropylene microplate, V-shape, Greiner, 781 280). Eluates were spotted on nitrocellulose membranes (400 nl per spot) using an automated pin-tool liquid transfer (Biomek FX, Beckman). After drying, the membranes were rehydrated in 20% (v/v) ethanol and blocked by incubation with Odyssey blocking buffer (LICOR, 927-40000) for 1 h at room temperature. Blocked membranes were incubated overnight at 25° C. with Odyssey blocking buffer supplemented with a specific anti-mTOR antibody (Cell Signaling, 2972; 1:500) and 0.4% TWEEN-20. Then the membranes were washed in PBST buffer and incubated for 60 minutes at room temperature with the detection antibody (IRDye™ labelled antibody from LI-COR) diluted in Odyssey blocking buffer (LICOR 927-40000) containing 0.2% TWEEN-20. Then the membranes were washed with PBST and finally rinsed twice with PBS buffer to remove residual Tween-20. The membranes were then scanned with the Odyssey® Infrared Imaging System (LI-COR Biosciences). Fluorescence signals were recorded and analyzed according to the instructions of the manufacturer. Concentration response curves were computed with the software Activity Base. All data were normalized to the mean of 16 high (negative control) and 16 low (positive control) control wells on each plate. […]

[2] = system: type I collagen deposition in primary lung fibroblasts derived from human tissue; assay: High throughput type I collagen deposition (scar-in-a-jar) high content screening assay; format: cell-based; settings: Primary lung fibroblast, 72 h, human pulmonary fibroblasts, 384-well, TGF-β 1 ng/ml 72 h, total collagen area, read-out: mean pIC50, high throughput type I collagen deposition (scar-in-a-jar) (converted)
Experimental: Highthroughput, cellular type I collagen deposition was measured by adapting a published method; scar-in-a-jar (Chen et al., 2009) to primary lung fibroblasts derived from human tissue and combining with high content analysis to permit fluorescent quantification of collagen deposited in the extracellular matrix (ECM). The human biological samples were sourced ethically and their research use was in accordance with the terms of the informed consents.
Test compounds were dissolved in 100% DMSO to give 10 mM (stocks) and further diluted to give half log dilutions to generate an 11 point concentration response curve. 1 ul was transferred to 384-well plates (Greiner Group, Kremsmunster, Austria, Catalogue No Greine 781280r).
Human pulmonary fibroblasts were maintained in DMEM media (Gibco, Catalogue No 21969) supplemented with 4 mM L-glutamine (Gibco Catalogue No 25030-024) and 10% heat inactivated FBS (Gibco, Catalogue No 10099-141) at 37° C. in 10% CO2. Cells were harvested and resuspended at 4×10^6 cells/ml in a T175 cell culture flask (BD Falcom, Catalogue No: 353112) containing 50 mL of culture media. After 4 days 37° C. in 10% CO2, cells were harvested and seeded at 4000 cells per well ([…]) into 384-well plates (BD Falcon, Catalogue No 353962Greiner) in assay media (0.4% heat inactivated FBS, 4 mM L-glutamine). Plates were sealed with breathable seals (Sigma, Catalogue No. BEM-1). Assay plates were incubated for 72 h at 37° C. in 10% CO2.
Assay media was supplemented with 112.5 mg/ml Ficoll 70 (Sigma, Catalogue No F2878), 75 mg/ml Ficoll 400 (Sigma, Catalogue No F4375) and 50 µg/ml ascorbic acid (Sigma, Catalogue No A8960). 30 μL assay media were added to 1 l compound ([…] compound concentration in 1% DMSO). Diluted compounds (10 μL) were transferred to plates containing cells and incubated for 3 h at 37° C. in 10% CO2. Transforming growth factor (TGF)-β (R&D systems, Catalogue No 100-B/CF) was reconstituted to give 10 µg/mL (stock) and further diluted in assay media containing Ficoll and ascorbic acid (1 in 3333). TGF-β was added to cell plates (1 ng/ml final) and cells incubated for 72 h at 37° C. in 10% CO2.
Media was aspirated from cells and 30 µL/well 100% ice-cold methanol added and incubated at RT for 5 min to fix cells. Methanol was aspirated and cells washed with PBS (3×). To block and permeabilise, cells were incubated with PBS containing 1% BSA and 0.1% Triton X 100 for 20 min, followed by PBS wash (3×). Cells were incubated with mouse anti human type I collagen monoclonal antibody (Sigma, Catalogue No C2456) diluted 1:1000 in PBS for 24 h at 4° C. Cells were washed with PBS containing 0.1% Tween-20 (3×) and incubated with secondary alexa fluor 488 goat-anti-mouse antibody (Invitrogen, Catalogue No A11001, 1 in 500 in PBS) and Hoechst 33342 (Sigma, Catalogue No H21492), 1 in 1000 in PBS) for 1 h at RT, prior to washing with PBS containing 0.1% Tween (×4).
Type I collagen immunoreactivity was detected using the INCell 2000 Analyzer (GE Healthcare, INcell 2000) set to excitation and emission wavelengths for DAPI and FITC with laser focus and exposure adjusted to appropriate levels. Images were imported and analysed using Columbus software (Perkin Elmer) and computational algorithms to quantify “total collagen area” and “cell count”.
Data analysis was performed by determining 0/inhibition values for test compounds relative to the minimum (media only) and maximum responses (TGF-βstimulation) with non-linear regression analysis to determine IC50 values for test compounds.

Compound | IC50 [1] [nM] | IC50 [2] [nM]
CC[C@H]1COCC(=O)N1c1cc(CS(C)(=O)=O)nc(-c2ccc3[nH]c(CO)cc3n2)n1 [Example 5, (5S)-5-ethyl-4-{2-[2-(hydroxymethyl)-1H-pyrrolo[3,2-b]pyridin-5-yl]-6-(methanesulfonylmethyl)pyrimidin-4-yl}morpholin-3-one] | ≤ 0.2 | 20 to 3160
CC[C@H]1COCC(=O)N1c1cc(CS(=O)(=O)N(C)C)cc(-c2ccc3[nH]c(CNC)cc3n2)n1 [Example 7, (S)-1-(2-(3-ethyl-5-oxomorpholino)-6-(2-((methylamino)methyl)-1H-pyrrolo[3,2-b]pyridin-5-yl)pyridin-4-yl)-N,N-dimethylmethanesulfonamide] |  | 20 to 3160
CC[C@H]1COCCN1c1cc(CS(=O)(=O)NC)nc(-c2ccc3[nH]c(C)cc3n2)n1 [Example 11, 1-{6-[(3S)-3-ethylmorpholin-4-yl]-2-{2-methyl-1H-pyrrolo[3,2-b]pyridin-5-yl}pyrimidin-4-yl}-N-methylmethanesulfonamide] | ≤ 0.2 | 20
CC[C@H]1COCCN1c1cc(CS(C)(=O)=O)nc(-c2ccc3[nH]c(C)cc3n2)n1 [Example 12, (3S)-3-ethyl-4-[6-(methanesulfonylmethyl)-2-{2-methyl-1H-pyrrolo[3,2-b]pyridin-5-yl}pyrimidin-4-yl]morpholine] | ≤ 0.316 | 20 to 3160
CC[C@H]1COCCN1c1cc(C2(S(C)(=O)=O)CCNCC2)nc(-c2ccc3[nH]c(C)cc3n2)n1 [Example 17, (3S)-3-ethyl-4-[6-(4-methanesulfonylpiperidin-4-yl)-2-{2-methyl-1H-pyrrolo[3,2-b]pyridin-5-yl}pyrimidin-4-yl]morpholine] |  | 20 to 3160
CC[C@H]1COCCN1c1cc(C2(S(C)(=O)=O)CCN(C)CC2)cc(-c2ccc3[nH]c(C)cc3n2)n1 [Example 19, (S)-3-ethyl-4-(6-(2-methyl-1H-pyrrolo[3,2-b]pyridin-5-yl)-4-(1-methyl-4-(methylsulfonyl)piperidin-4-yl)pyridin-2-yl)morpholine] |  | 20 to 3160
CC[C@H]1COCCN1c1cc(C2(S(C)(=O)=O)CCN(C)CC2)cc(-c2ccc3[nH]c(CO)cc3n2)n1 [Example 20, (S)-(5-(6-(3-ethylmorpholino)-4-(1-methyl-4-(methylsulfonyl)piperidin-4-yl)pyridin-2-yl)-1H-pyrrolo[3,2-b]pyridin-2-yl)methanol] |  | 20 to 3160
CC[C@H]1COCC(=O)N1c1cc(CS(C)(=O)=O)cc(-c2ccc3[nH]c(CNC)cc3n2)n1 [Example 28, (S)-5-ethyl-4-(6-(2-((methylamino)methyl)-1H-pyrrolo[3,2-b]pyridin-5-yl)-4-((methylsulfonyl)methyl)pyridin-2-yl)morpholin-3-one] |  | 20 to 3160
CC[C@H]1COCC(=O)N1c1cc(CS(=O)(=O)N(C)C)cc(-c2ccc3[nH]c(CO)cc3n2)n1 [Example 29, (S)-1-(2-(3-ethyl-5-oxomorpholino)-6-(2-(hydroxymethyl)-1H-pyrrolo[3,2-b]pyridin-5-yl)pyridin-4-yl)-N,Ndimethylmethanesulfonamide] | ≤ 1.26 | 20 to 3160
